Data reported in the supplement of paper PMC10307832.

Experiments:
Assay in all cases: relative viability (nuclei count vs DMSO), 5 days (fraction); higher = more cells survive
A-427 = system: A-427
Summary of the method: (§1)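 Five library-drug doses in √10 steps were combined with a fixed anchor-drug dose, or a single drug was given alone, by pin tool to lung cancer cell lines in 1536-well plates the day after seeding. Nuclei were stained and counted after 5 days. Relative viability is the nuclei count in treated wells over that in vehicle wells, taken as the median of duplicate plates.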

HCC-15 = system: HCC-15
Summary of the method: as §1

HCC-78 = system: HCC-78
Summary of the method: as §1

HOP-62 = system: HOP-62
Summary of the method: as §1

LC-2-ad = system: LC-2-ad
Summary of the method: as §1

LOU-NH91 = system: LOU-NH91
Summary of the method: as §1

LXF-289 = system: LXF-289
Summary of the method: as §1

NCI-H1734 = system: NCI-H1734
Summary of the method: as §1

NCI-H1755 = system: NCI-H1755
Summary of the method: as §1

NCI-H1792 = system: NCI-H1792
Summary of the method: as §1

NCI-H1915 = system: NCI-H1915
Summary of the method: as §1

NCI-H1975 = system: NCI-H1975
Summary of the method: as §1

NCI-H2126 = system: NCI-H2126
Summary of the method: as §1

NCI-H2228 = system: NCI-H2228
Summary of the method: as §1

NCI-H2342 = system: NCI-H2342
Summary of the method: as §1

NCI-H2347 = system: NCI-H2347
Summary of the method: as §1

NCI-H358 = system: NCI-H358
Summary of the method: as §1

NCI-H460 = system: NCI-H460
Summary of the method: as §1

NCI-H647 = system: NCI-H647
Summary of the method: as §1

PC-3 [JPC-3] = system: PC-3 [JPC-3]
Summary of the method: as §1

RERF-LC-KJ = system: RERF-LC-KJ
Summary of the method: as §1

SK-LU-1 = system: SK-LU-1
Summary of the method: as §1

SW 1573 = system: SW 1573
Summary of the method: as §1

CC1(C)CCC(c2ccc(Cl)cc2)=C(CN2CCN(c3ccc(C(=O)NS(=O)(=O)c4ccc(N[C@H](CCN5CCOCC5)CSc5ccccc5)c(S(=O)(=O)C(F)(F)F)c4)cc3)CC2)C1 [Navitoclax] + CC(=O)Nc1cccc(-n2c(=O)n(C3CC3)c(=O)c3c(Nc4ccc(I)cc4F)n(C)c(=O)c(C)c32)c1 [Trametinib] (partner 0.02 µM)
relative viability (A-427; first compound 0.005 µM): 0.724 | relative viability (A-427; first compound 0.01581 µM): 0.714 | relative viability (A-427; first compound 0.05 µM): 0.624 | relative viability (A-427; first compound 0.1581 µM): 0.599 | relative viability (A-427; first compound 0.5 µM): 0.652 | relative viability (HCC-15; first compound 0.005 µM): 0.329 | relative viability (HCC-15; first compound 0.01581 µM): 0.432 | relative viability (HCC-15; first compound 0.05 µM): 0.332 | relative viability (HCC-15; first compound 0.1581 µM): 0.401 | relative viability (HCC-15; first compound 0.5 µM): 0.35 | relative viability (HCC-78; first compound 0.005 µM): 0.653 | relative viability (HCC-78; first compound 0.01581 µM): 0.826 | relative viability (HCC-78; first compound 0.05 µM): 0.59 | relative viability (HCC-78; first compound 0.1581 µM): 0.727 | relative viability (HCC-78; first compound 0.5 µM): 0.727 | relative viability (HOP-62; first compound 0.005 µM): 0.377 | relative viability (HOP-62; first compound 0.01581 µM): 0.404 | relative viability (HOP-62; first compound 0.05 µM): 0.362 | relative viability (HOP-62; first compound 0.1581 µM): 0.365 | relative viability (HOP-62; first compound 0.5 µM): 0.39 | relative viability (LC-2-ad; first compound 0.005 µM): 0.861 | relative viability (LC-2-ad; first compound 0.01581 µM): 0.906 | relative viability (LC-2-ad; first compound 0.05 µM): 0.813 | relative viability (LC-2-ad; first compound 0.1581 µM): 0.902 | relative viability (LC-2-ad; first compound 0.5 µM): 0.823 | relative viability (LOU-NH91; first compound 0.005 µM): 0.776 | relative viability (LOU-NH91; first compound 0.01581 µM): 0.829 | relative viability (LOU-NH91; first compound 0.05 µM): 0.607 | relative viability (LOU-NH91; first compound 0.1581 µM): 0.685 | relative viability (LOU-NH91; first compound 0.5 µM): 0.33 | relative viability (LXF-289; first compound 0.005 µM): 0.649 | relative viability (LXF-289; first compound 0.01581 µM): 0.709 | relative viability (LXF-289; first compound 0.05 µM): 0.633 | relative viability (LXF-289; first compound 0.1581 µM): 0.69 | relative viability (LXF-289; first compound 0.5 µM): 0.692 | relative viability (NCI-H1734; first compound 0.005 µM): 0.644 | relative viability (NCI-H1734; first compound 0.01581 µM): 0.776 | relative viability (NCI-H1734; first compound 0.1581 µM): 0.625 | relative viability (NCI-H1734; first compound 0.5 µM): 0.646 | relative viability (NCI-H1755; first compound 0.005 µM): 0.743 | relative viability (NCI-H1755; first compound 0.01581 µM): 0.774 | relative viability (NCI-H1755; first compound 0.05 µM): 0.662 | relative viability (NCI-H1755; first compound 0.1581 µM): 0.764 | relative viability (NCI-H1755; first compound 0.5 µM): 0.802 | relative viability (NCI-H1792; first compound 0.005 µM): 0.458 | relative viability (NCI-H1792; first compound 0.01581 µM): 0.631 | relative viability (NCI-H1792; first compound 0.1581 µM): 0.376 | relative viability (NCI-H1792; first compound 0.5 µM): 0.388 | relative viability (NCI-H1915; first compound 0.005 µM): 0.287 | relative viability (NCI-H1915; first compound 0.01581 µM): 0.327 | relative viability (NCI-H1915; first compound 0.05 µM): 0.297 | relative viability (NCI-H1915; first compound 0.1581 µM): 0.314 | relative viability (NCI-H1915; first compound 0.5 µM): 0.331 | relative viability (NCI-H1975; first compound 0.005 µM): 0.427 | relative viability (NCI-H1975; first compound 0.01581 µM): 0.409 | relative viability (NCI-H1975; first compound 0.05 µM): 0.236 | relative viability (NCI-H1975; first compound 0.1581 µM): 0.399 | relative viability (NCI-H1975; first compound 0.5 µM): 0.316 | relative viability (NCI-H2126; first compound 0.005 µM): 0.554 | relative viability (NCI-H2126; first compound 0.01581 µM): 0.639 | relative viability (NCI-H2126; first compound 0.05 µM): 0.638 | relative viability (NCI-H2126; first compound 0.1581 µM): 0.524 | relative viability (NCI-H2126; first compound 0.5 µM): 0.561 | relative viability (NCI-H2228; first compound 0.005 µM): 0.476 | relative viability (NCI-H2228; first compound 0.01581 µM): 0.802 | relative viability (NCI-H2228; first compound 0.1581 µM): 0.511 | relative viability (NCI-H2228; first compound 0.5 µM): 0.491 | relative viability (NCI-H2342; first compound 0.005 µM): 0.8 | relative viability (NCI-H2342; first compound 0.01581 µM): 0.957 | relative viability (NCI-H2342; first compound 0.05 µM): 0.819 | relative viability (NCI-H2342; first compound 0.1581 µM): 0.653 | relative viability (NCI-H2342; first compound 0.5 µM): 0.967 | relative viability (NCI-H2347; first compound 0.005 µM): 0.296 | relative viability (NCI-H2347; first compound 0.01581 µM): 0.314 | relative viability (NCI-H2347; first compound 0.05 µM): 0.26 | relative viability (NCI-H2347; first compound 0.1581 µM): 0.32 | relative viability (NCI-H2347; first compound 0.5 µM): 0.259 | relative viability (NCI-H358; first compound 0.005 µM): 0.131 | relative viability (NCI-H358; first compound 0.01581 µM): 0.148 | relative viability (NCI-H358; first compound 0.05 µM): 0.114 | relative viability (NCI-H358; first compound 0.1581 µM): 0.133 | relative viability (NCI-H358; first compound 0.5 µM): 0.146 | relative viability (NCI-H460; first compound 0.005 µM): 0.135 | relative viability (NCI-H460; first compound 0.01581 µM): 0.237 | relative viability (NCI-H460; first compound 0.05 µM): 0.153 | relative viability (NCI-H460; first compound 0.1581 µM): 0.188 | relative viability (NCI-H460; first compound 0.5 µM): 0.215 | relative viability (NCI-H647; first compound 0.005 µM): 0.345 | relative viability (NCI-H647; first compound 0.01581 µM): 0.521 | relative viability (NCI-H647; first compound 0.05 µM): 0.331 | relative viability (NCI-H647; first compound 0.1581 µM): 0.534 | relative viability (NCI-H647; first compound 0.5 µM): 0.408 | relative viability (PC-3 [JPC-3]; first compound 0.005 µM): 0.674 | relative viability (PC-3 [JPC-3]; first compound 0.01581 µM): 0.714 | relative viability (PC-3 [JPC-3]; first compound 0.05 µM): 0.734 | relative viability (PC-3 [JPC-3]; first compound 0.1581 µM): 0.668 | relative viability (PC-3 [JPC-3]; first compound 0.5 µM): 0.603 | relative viability (RERF-LC-KJ; first compound 0.005 µM): 0.823 | relative viability (RERF-LC-KJ; first compound 0.01581 µM): 0.847 | relative viability (RERF-LC-KJ; first compound 0.05 µM): 0.969 | relative viability (RERF-LC-KJ; first compound 0.1581 µM): 0.938 | relative viability (RERF-LC-KJ; first compound 0.5 µM): 0.985 | relative viability (SK-LU-1; first compound 0.005 µM): 0.716 | relative viability (SK-LU-1; first compound 0.01581 µM): 0.57 | relative viability (SK-LU-1; first compound 0.05 µM): 0.296 | relative viability (SK-LU-1; first compound 0.1581 µM): 0.601 | relative viability (SK-LU-1; first compound 0.5 µM): 0.433 | relative viability (SW 1573; first compound 0.005 µM): 0.623 | relative viability (SW 1573; first compound 0.01581 µM): 0.5 | relative viability (SW 1573; first compound 0.05 µM): 0.654 | relative viability (SW 1573; first compound 0.1581 µM): 0.475 | relative viability (SW 1573; first compound 0.5 µM): 0.474
